{"source": "patent US10517835B2", "about": "“Composition and methods of treatment” (Blueberry Therapeutics Limited, priority 2015, dated 2019)", "key": {"[1]": {"test": "Nanoparticle formation, number and size on Malvern Instruments Nanosight LM10", "type": "physicochemical", "conditions": "0.1 mg/ml terbinafine in 30% ethanol, with or without 0.3 mg/ml PHMB, room temperature at least 24 hours; for particle number: hydrochloride", "protocol": "Terbinafine was mixed at 0.1 mg/ml in 30% ethanol and incubated at room temperature for at least 24 hours up to a maximum of 47 days. Another formulation was prepared by mixing terbinafine at 0.1 mg/ml in 30% ethanol and then adding PHMB to 0.3 mg/ml. The formulation was incubated at room temperature for at least 24 hours up to a maximum of 112 days. The number and size of any nanoparticles formed were measured using a Malvern Instruments Nanosight LM10."}, "[2]": {"tested_on": "Trychophyton mentagrophytes", "test": "Paper disk zone of clearance assay on YEPD agar", "type": "cell-based", "conditions": "4 days 30° C.", "protocol": "The antifungal activity of a range of concentrations of terbinafine, encompassing the concentrations range passing through the nails in the Franz cells, was tested. Terbinafine was diluted to the following concentrations in double distilled water: 60, 6, 0.6 and 0.06 μg/ml. 40 μl of each terbinafine solution and double distilled water alone was spotted onto a 10 mm sterile 3 MM paper disk. Each disk was placed on a lawn of Trychophyton mentagrophytes plated on yeast extract peptone dextrose (YEPD) agar plates. T. mentagrophytes was used as a laboratory fungal strain due to its relevance to key pathogenic species in onychomycosis (fungal nail infection). The agar plates were inverted and incubated at 30° C. for 4 days. The plates were photographed and analysed for zones of clearance, which indicate antifungal activity."}}, "note": "“Also recorded” adds a separate entry of the source. Structures can show the parent of a compound that is named as a salt."}
{"smiles": "CN(C/C=C/C#CC(C)(C)C)Cc1cccc2ccccc12", "note": "[terbinafine, terbinafine hydrochloride]", "values": [{"measurement": "particle size range", "setting": "[1]", "value": "50-800 nm"}, {"measurement": "particle number", "setting": "[1]", "value": "0.5×10^8 particles/ml"}, {"measurement": "particle number", "setting": "[1]; listed as terbinafine alone", "value": "Approximately 0.5×10^8 particles/ml"}, {"measurement": "zone of clearance", "setting": "[2]; 40 μl of 0.06 μg/ml solution on 10 mm disk", "value": "no zone of clearance"}, {"measurement": "zone of clearance", "setting": "[2]; 40 μl of 0.6 μg/ml solution on 10 mm disk, hydrochloride", "value": "clear zones of clearance; also recorded: Progressively smaller zones of clearance"}, {"measurement": "zone of clearance", "setting": "[2]; 40 μl of 6 μg/ml solution on 10 mm disk, hydrochloride", "value": "clear zones of clearance; also recorded: Progressively smaller zones of clearance"}, {"measurement": "zone of clearance", "setting": "[2]; 40 μl of 60 μg/ml solution on 10 mm disk, hydrochloride", "value": "clear zones of clearance; also recorded: largest zone of clearance"}]}
